Experimental findings from US12162863B2, “Modulators of stimulator of interferon genes (STING)” (RYVU THERAPEUTICS S.A., priority 2018, dated 2024) are described below.

Usually ΔTm stands for the shift of the melting midpoint relative to a reference. In general, EC50 refers to the concentration at which the effect is half-maximal.

Experiment [1] has as its target human STING (Homo sapiens, UniProt Q86WV6). Put plainly: Fluorescence Thermal Shift assay. It is filed as binding. The following applies: 50 μM compound; STING 0.1 mg/ml; 20 minutes preincubation; read-out: [hSTING] FTS, ΔTm [° C.] for 50 μM. As to the method: Fluorescence Thermal Shift Assay Compounds of the present invention were tested for binding to human STING in Fluorescence Thermal Shift assay. STING was preincubated with the compounds for 20 minutes in 50 mM Hepes, 150 mM NaCl, pH 7.5 in 16 μl volume, following by adding 4 μl of SyproOrange dye dilution (ThermoFisher, cat no. S-6651). Final STING concentration was 0.1 mg/ml. Thermal unfolding was performed in Real-Time PCR QuantStudio 6 Flex System (Applied Biosystems), from 25 to 99° C., with continuous ramp mode and ramp rate 0.033° C./s. The data were analyzed using Protein Thermal Shift Software (ThermoFisher). […] For example, ΔTm [° C.] of FTS assay for following examples are: […]

Experiment [2] concerns interferon regulatory factor (IRF) pathway in THP-1 dual cells. Put plainly: THP-1 Dual Reporter Assay, IRF pathway (luciferase reporter). It is filed as cell-based. The settings on record: Homo sapiens, THP1-Dual, 18 h of stimulation, luminescence. As to the method:
(§1) THP-1 Dual Reporter Assay
(§2) Compounds of the present invention were tested for their activity using THP-1 dual cells (Invivogen, cat no. thpd-nfis) allowing for simultaneous study of NF-κB pathway and the interferon regulatory factor (IRF) pathway. THP-1 dual cells contain luciferase reporter gene under the control of an ISG54 (interferon-stimulated gene) minimal promoter in conjunction with five interferon-stimulated response elements and a secreted embryonic alkaline phosphatase reporter gene under the control an IFN (interferon)-β minimal promoter fused to five copies of the NF-κB consensus transcriptional response element with three copies of the c-Rel binding site. Following 18 h of stimulation with STING agonist, medium was collected and transferred onto fresh cell culture plate. To verify activity of the IRF pathway, luminescence activity was measured with standard laboratory plate reader immediately after addition 10 μl of the medium to 50 μl of luminescence reagent (Invivogen, cat. No. rep-qlc2). To verify activity of NF-κB pathway, 20 μl of the medium was mixed with 80 μl of a detection medium (Invivogen, cat. No. rep-qb2) and incubated for 2 hours at 37° C. in a humidified atmosphere containing 5% CO2. Next, absorbance at 630 nm was recorded using standard laboratory plate reader.
For orientation: In a reporter assay the amount or activity of a reporter protein is the signal.

The subject of experiment [3] is NF-κB pathway in THP-1 dual cells. Put plainly: THP-1 Dual Reporter Assay, NF-κB pathway (SEAP reporter). It counts as cell-based. The following applies: Homo sapiens, THP1-Dual, 18 h of stimulation, absorbance at 630 nm, read-out: THP1 Dual EC50 (μM) NFkB. On the procedure: as §1, §2

SMILES strings stand for the structures.

human STING, sequence (Q86WV6 whole entry H232R): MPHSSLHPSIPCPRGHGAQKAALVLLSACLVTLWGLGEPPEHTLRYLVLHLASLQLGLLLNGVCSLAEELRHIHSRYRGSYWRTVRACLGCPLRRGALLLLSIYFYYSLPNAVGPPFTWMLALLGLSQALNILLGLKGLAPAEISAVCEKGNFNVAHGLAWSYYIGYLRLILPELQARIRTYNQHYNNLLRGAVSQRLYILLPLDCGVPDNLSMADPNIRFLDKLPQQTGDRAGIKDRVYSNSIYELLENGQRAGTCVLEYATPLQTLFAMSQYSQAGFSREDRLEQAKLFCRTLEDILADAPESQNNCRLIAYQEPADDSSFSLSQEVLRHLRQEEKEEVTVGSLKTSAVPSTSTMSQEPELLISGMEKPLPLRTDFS

On to `O=c1c(CN(CCCn2cnc3ncccc32)Cc2ccncc2)coc2c1ccc1ccccc12` [Example 68, 3-{[(3-{1H-imidazo[4,5-b]pyridin-1-yl}propyl)(pyridin-4-ylmethyl)amino]methyl}-4H-benzo[h]chromen-4-one], for which the ΔTm at 50 µM in experiment [1] was > 2.5 °C. The EC50 in experiment [2] and in experiment [3] was ≤ 10 µM throughout.

For the molecule `Cc1oc2cc(N3CCNCC3)c(F)cc2c(=O)c1CN(CCCc1cccnc1)Cc1ccncc1` [Example 69, 6-fluoro-2-methyl-7-(piperazin-1-yl)-3-({[3-(pyridin-3-yl)propyl][(pyridin-4-yl)methyl]amino}methyl)-4H-chromen-4-one], in experiment [1], the ΔTm at 50 µM is > 2.5 °C. In addition, the 50% effective concentration (EC50) in experiment [2] and in experiment [3] was ≤ 10 µM throughout.

In the case of `COc1cc(CN(CCCn2cnc3cncnc32)Cc2cn(C)c3ccccc3c2=O)ccn1` [Example 89, 3-({[(2-methoxypyridin-4-yl)methyl][3-(9H-purin-9-yl)propyl]amino}methyl)-1-methyl-1,4-dihydroquinolin-4-one], the ΔTm at 50 µM in experiment [1] is < 2.5 °C. Further, the EC50 in experiment [2] and in experiment [3] was ≤ 10 µM in each case.

On to `COc1cc(CN(CCCn2cnc3ncncc32)Cc2cn(C)c3ccccc3c2=O)ccn1` [Example 91, 3-({[(2-methoxypyridin-4-yl)methyl][3-(7H-purin-7-yl)propyl]amino}methyl)-1-methyl-1,4-dihydroquinolin-4-one], for which the ΔTm at 50 µM in experiment [1] is < 2.5 °C. Further, the EC50 in experiment [2] and in experiment [3] was ≥ 20 µM each time.

For the molecule `O=c1c(CN(CCCn2ccnc2)Cc2ccncc2)c[nH]c2ccccc12` [Example 74, 3-({[3-(1H-imidazol-1-yl)propyl][(pyridin-4-yl)methyl]amino}methyl)-1,4-dihydroquinolin-4-one], the ΔTm at 50 µM in experiment [1] was < 2.5 °C. The EC50 in experiment [2] and in experiment [3] was ≥ 20 µM each time.

As to `O=c1c(CN(CCCn2ccnc2)Cc2ccncc2)coc2c1cc(F)c1ccccc12` [Example 47, 6-fluoro-3-({[3-(1H-imidazol-1-yl)propyl][(pyridin-4-yl)methyl]amino}methyl)-4H benzo[h]chromen-4-one], the ΔTm at 50 µM in experiment [1] was > 2.5 °C. Further, the EC50 in experiment [2] and in experiment [3] was ≤ 10 µM in each case.

As to `Cc1oc2cc(F)c(F)cc2c(=O)c1CN(CCCn1cnc2ccccc21)Cc1ccncc1` [Example 99, 3-({[3-(1H-1,3-benzodiazol-1-yl)propyl][(pyridin-4-yl)methyl]amino}methyl)-6,7-difluoro-2-methyl-4H-chromen-4-one], in experiment [1], the ΔTm at 50 µM is > 2.5 °C. In addition, the EC50 in experiment [2] and in experiment [3] was ≤ 10 µM each time.

In the case of `O=c1c(CN(CCCn2cnc3ccccc32)Cc2ccncc2)coc2ccccc12` [Example 17, 3-({[3-(1H-1,3-benzodiazol-1-yl)propyl](pyridin-4-ylmethyl)amino}methyl)-4H-chromen-4-one], the ΔTm at 50 µM in experiment [1] was > 2.5 °C. Moreover, the results for the EC50 in experiment [2] and in experiment [3] were ≤ 10 µM and 10 to 20 µM, respectively.

As to `O=c1c(CN(CCCc2ccccn2)Cc2ccncc2)coc2ccccc12` [Example 6, 3-({[3-(pyridin-2-yl)propyl][(pyridin-4-yl)methyl]amino}methyl)-4H-chromen-4-one], the ΔTm at 50 µM in experiment [1] is < 2.5 °C. The EC50 in experiment [2] and in experiment [3] was ≥ 20 µM each time.

Regarding `COc1ccc(-c2ccc3c(=O)c(CN(CCCn4ccnc4)Cc4ccncc4)coc3c2)cc1` [Example 32, 3-({[3-(1H-imidazol-1-yl)propyl](pyridin-4-ylmethyl)amino}methyl)-7-(4-methoxyphenyl)-4H-chromen-4-one], the ΔTm at 50 µM in experiment [1] was > 2.5 °C. The figures for the EC50 in experiment [2] and in experiment [3] were 10 to 20 µM and ≥ 20 µM, respectively.

Take `O=c1c(CN(CCCn2ccccc2=O)Cc2ccncc2)coc2c1ccc1ccccc12` [Example 59, 1-{3-[({4-oxo-4H-benzo[h]chromen-3-yl}methyl)[(pyridin-4-yl)methyl]amino]propyl}-1,2-dihydropyridin-2-one]: in experiment [1], the ΔTm at 50 µM is < 2.5 °C. For the same molecule, the EC50 in experiment [2] and in experiment [3] was ≤ 10 µM throughout.
